Data on 8 substances can be found in patent publication US5211657A, “Laminin a chain deduced amino acid sequence, expression vectors and active synthetic peptides” (The United States Government as represented by the …, priority 1988, dated 1993).

One test deals with HUVEC (endothelia cell). In words: Cell attachment and spreading on coated dish (Table IV). It counts as cell-based, Human. Conditions: endothelial cells. As for the experimental part: (§1) A further aspect of the invention provides synthetic peptides from the deduced amino acid sequence of the cDNA sequence for the A chain. These synthetic peptides can be synthesized by any suitable method such as one previously used by our group (Graf et al (1987) Cell 48:989). A variety of synthetic peptides are tested for biological activity such as promoting cell adhesion, migration, growth and preventing invasion of tumor cells (see locations and sequences of the active peptides in FIG. 14 and Table III). […] A: increasing amounts of peptide were coated onto a 24 well dish in DMEM for 2 hours. The unbound peptide was removed and the wells were incubated with DMEM containing 3% BSA before the addition of cells. B and C: Morphological appearance of cells attached on peptide and laminin substrates. In the absence of peptides or laminin, few cells were attached. Table III is shown below.
(§2) This peptide is active with various cells and its activity can be equal to that of laminin itself in terms of the total number of cells that can attach to surfaces coated with the peptide. […] Table IV is shown below.

The test system of test [1] is endothelial cell binding to laminin. In words: Competition with intact laminin for endothelial cell binding. The format is cell-based. The note with it: endothelial cells. From the text:
Many of the same cells which recognize peptide PA22-2 and YIGSR also recognize and bind to PA21 and PA26 but the degree of binding is quite different. […] Since the sequence of PA36 is unique to laminin, the response of endothelial cells to PA36 is likely to be specific to the peptide.

Test [2] relates to neural cell lines (PC-12, NG108-15) and primary cultures of neural cells. Conditions: background statement; cited from earlier work.
Test [3] relates to HT-1080 fibrosarcoma cells. Conditions: background statement; cited from earlier work.
In another test the test system is EGF-like activity. Conditions: personal communication; cited from earlier work.
A further test relates to various cells. Kind of test: Cell attachment to peptide coated on plastic. The format is cell-based. As for the experimental part:
as §1, §2

Test [4] deals with cells in culture and tumor cells in vivo. In words: Various biological activities with cells in culture and tumor cells in vivo (comparison of derivatives). Conditions: all presently found activities.
For another test, the system named is B16F10 (melanoma). In words: Cell attachment and spreading on coated dish (Table IV). The format is cell-based. The protocol: as §1, §2
The subject of a further test is HT1080 (fibrosarcoma). The test is described as above. The format is cell-based. The note with it: HT-1080. The protocol: as §1, §2
For another test, the system named is B16F10 Melonoma Cells. Kind of test: Lung tumor formation after tail vein injection of B16F10 melanoma cells with peptide. Conditions: for Number of Tumors/animal: lung surface tumors after 3 weeks, no peptide: 26. The format is in vivo, mice. From the text: It is well known that tumor cells must attach degrade, and migrate through basement membranes in order to spread to distant sites. Laminin is known to increase the metastic phenotype of tumor cells and the number of tumors formed in mice. Using a line of B16 melanoma cells which specifically colonize the lung when injected into mouse tail vein, we have studied the effect of peptide PA22-2 on the formation of lung tumors.
In these studies, various amounts of peptide PA22-2 are mixed with the B16F10 melanoma cells (5×10^4) and injected into mice via the tail vein. Eight mice are injected for each concentration of test peptide. After 2-3 weeks, the mice are sacrificed and the number of […] colonies on the lung surface are counted.
10^5 melanoma cells in a final volume of 0.2 ml of Dulbecco's
modification of Eagle's medium (DMEM) containing the indicated amount and
type of peptide were injected in the tail vein. Eight mice were in each
test group. After 3 weeks, the mice were sacrificed, lungs were removed.
The number of tumors on the surface of the lungs was determined by using
Each group contained 8 mice which were injected with […] B16F10 Melanoma cells via the tail vein in a final volume of 0.2 DMEM containing the designated amount of peptide. After three weeks, the animals were sacrificed and the number of colonies on the surface of the lungs was determined.

Test [5] relates to laminin-mediated cell adhesion. In words: Blocking of laminin-mediated cell attachment by soluble peptide. It counts as cell-based. The note with it: laminin coated dish; peptide added with cells; one and a half hours. As for the experimental part:
Laminin was coated on the dish as described above, then peptide togehter with cells were added to the dishes and cell adhesion after one and a half hours was determined.

In test [6] the test system is neural cell lines (PC-12, NG108-15) and primary cultures of neural cells. Kind of test: Neurite outgrowth / process formation on coated peptide. It counts as cell-based. Conditions: peptide coated on plastic dish. As for the experimental part:
In fact, laminin promotes regeneration faster and over greater distances than any other factor described to date. […] It is active in a dose-dependent manner and is active both with neural cell lines (PC-12 FIGS. 17A and B and NG108-15) and with primary cultures of neural cells both from the peripheral and the central nervous system. The processes formed appear identical to those observed with intact laminin (see FIG. 17A).
The assay was carried out in a similar manner to the cell adhesion assay. 17A: Morphology after 4 hours. 17B: Dose response curve showing number of processes formed. Cells were directly counted from at least 10 microscopic fields.

Test [7] has as its system Human umbilical vein endothelial cells. In words: Endothelial cell tube formation on reconstituted basement membrane. It counts as cell-based. As for the experimental part: Human umbilical vein endothelial cells when coated on a reconstituted basement membrane substrate rapidly (by 12 hours) organize into capillary-like structures (see FIG. 18A). […] It may have a potential clinical use in blocking blood vessel formation as for example, during the vascularization of tumors and in diabetic retinopathy (ex diabetic retinopathy or Kaposi sarcoma). […] 18A: Morphology of cells. Cells were plated on a reconstituted basement membrane substrate and after 2 and 18 hours it is apparent that the cells line up into capillary-like structures. […] 18B: Adhesion to peptides. 18C: peptide inhibition of tube formation.

The test system of test [8] is HT-1080 fibrosarcoma cells. Kind of test: Collagenase production (collagen IV degrading enzymes in conditioned medium). It counts as cell-based. The note with it: HT-1080 cells treated for 6 hours. As for the experimental part:
This enzyme is thought to be important in cancer where its production is correlated with the invasive and metastatic activity of malignant tumor cells. In fact, degradation of basement membranes by collagenase IV is a necessary step in the metastatic process. […] The cells were treated for 6 hours with various amounts of the peptide and then the conditional medium was assayed for the production of collagen IV degrading enzymes. The effect is dose-dependent and is not reproduced by any other peptide tested to date. The importance of localizing this activity to peptide PA22-2 is that it will now be possible to more precisely define the molecular events involved in the metastatic process. Competitive inhibitors of this activity can be readily designed by modification of the composition of the active peptide i.e. Dasmano acids, cyclic forms etc. There may also be situations where the production of the enzyme could be advantageous such as in speeding the migration of leukocytes to sites of infection.

The test system of another test is B16-F10 and PC12 cells. In words: Cell growth. The format is cell-based.
A further test concerns cell migration. Kind of test: Cell migration. The format is cell-based.

Consider CSKCQAGTFALR [PA36], for which, in the test with HUVEC (endothelia cell), the “Endothelial cell adhesion to peptide” value is on record as “specifically active with endothelial cells for cell adhesion”. Also, the “Competition with intact laminin for endothelial cell binding to laminin” value in test [1] is “effectively competes with intact laminin for endothelial cell binding to laminin”.
As for “Laminin: large glycoprotein localized to basement membranes, composed of three chains A, B1 and B2; prepared from EHS tumor”, the “Neurite outgrowth promoting activity (background)” value in [2] was “very active in promoting neurite outgrowth”. Moreover, the “Collagenase production / release (background)” value in [3] was “induces the production of collagenase IV”. Moreover, the EGF-like activity result in the test with EGF-like activity is recorded as “exert EGF-like growth factor activity”.
As to XFALRGDNPQG [PA26], the “Cell adhesion / attachment to coated peptide” value (“Cell adhesion / attachment” for short) in the test on various cells is “support the attachment of many cells”.
Turning to XGQIKKSPAVKVT [pA31-2], the “Cell adhesion / attachment” value in the test with various cells is reported as “has some cell attachment activity”.
For XGQIKKSPAVKVTHFKG [pA31-1], in the test on various cells, the “Cell adhesion / attachment” value is given as “active for cell attachment”.
XIKVAVSADR [PA22-4]: the “Activity relative to PA22-2” value in test [4] is “almost equally active”.
For XRKQAASIKVAVS [PA22-3], the “Activity relative to PA22-2” value in [4] is “almost equally active”.
On to XSRARQAASIKVAVSADR [PA22-2], for which the results for the “Spreading on substrates coated with the peptide” value in the test with B16F10 (melanoma) and with HT1080 (fibrosarcoma) were “spreading is observed” and “spreading is not observed”, respectively. The “Number of Tumors/animal” value in the test on B16F10 Melonoma Cells (0.5 mg peptide injected with melanoma cells in tail vein) was 44; with B16F10 Melonoma Cells (1 mg peptide injected with melanoma cells in tail vein), 53. The “Increase in the number of lung tumors” value with B16F10 Melonoma Cells (1 mg/mouse) is “two-fold increase”. The “Cell adhesion / attachment” value in the test with various cells was “promotes the adhesion of various epithelial cells in a rapid dose-dependent manner”. Further, the “Blocking of laminin-mediated cell adhesion” value in [5] is recorded as “can complete (i.e. block) laminin-mediated cell adhesion”. For the same substance, in test [6], the “Neurite outgrowth promoting activity” value is on record as “mimics the neurite promoting activity of laminin”. Also, the “Adhesion of HUVEC” value in test [7] was “does not alter the adhesion of these cells”. In addition, the “Formation of capillary-like structures (tube formation)” value in test [7] (HUVEC on reconstituted basement membrane) is “block the formation of capillary-like structures”. Also, in [8], the Production of collagenase result is given as “increase in the production of collagenase to levels comparable to those observed with intact laminin”. For the same substance, the Cell growth result in the test on B16-F10 and PC12 cells is on record as “stimulate growth”. In “Heparin binding”, the Heparin binding entry was “promote activity to bind heparin”. Also, in the test on cell migration, the Cell migration entry is given as “active”.
